In US11993582B2, “Crystalline forms of a LTA4H inhibitor” (Novartis AG, priority 2018, dated 2024):
Values after ≈ are worked out from the molar mass of the structure shown.

What was measured:
Assay type in all cases: physicochemical
[1] = Solid state stability in bulk (HPLC degradation products, XRPD); conditions: test conditions 1-5: 1 week, tight or open container, room temperature to 80° C., up to 92% RH; listed as Modification HB
Description: The chemical and physical stability of form B and form HB was investigated, exposing the individual forms to high humidity at temperatures ranging from 25-80° C.
The degradation products were analyzed by HPLC and the sample was analyzed by XPRD to detect any changes to the solid state.

[2] = Solubility in aqueous buffers and bio-relevant media
[3] = Physical stability: behavior under compression (XRPD); conditions: 5 minutes at 10 tons, hydraulic press, 13 mm tablets
Description: Behavior under compression: The physical stability of crystalline Form HB was also evaluated. 300 mf of the crystalline form HB was compressed for 5 minutes at 10 tons with a hydraulic press (diameter of the tablets 13 mm). The sample was then characterized by XRPD to detect any change in the solid state.

[4] = Stability in solvent: equilibration of Form HB with solvent, residue analysed by XRPD
[5] = Physical stability: granulation simulation experiment (XRPD and/or DSC); conditions: ethanol or water as granulation solvent, 25° C.
Description: Behavior under granulation simulation experiment: The physical stability of crystalline forms HB was also evaluated in granulation simulation experiments. In these experiments granulating solvent was added dropwise to the crystalline form HB until the solid is wetted sufficiently. The mixture was then vortexed between each addition at 25° C. The mixture was then dried under vacuum. The crystallinity of the material (post-grinding) was re-evaluated by XRPD and/or DSC. The granulating solvent was water or ethanol.

[6] = Physical stability: behavior under grinding (XRPD); conditions: ground manually in a mortar for 3 minutes
Description: Behavior under grinding: The physical stability of crystalline form Form HB was also evaluated. 50 mg of the crystalline form B or HB were ground manually in a mortar for 3 minutes.

Hygroscopicity by DVS = test: Hygroscopicity by DVS
From the text: Crystalline form HB is a hydrated form of (S)-3-amino-4-(5-(4-((5-chloro-3-fluoropyridin-2-yl)oxy)phenyl)-2H-tetrazol-2-yl)butanoic acid.

[7] = Stability in solvent: equilibration of Form HB with solvent, residue analysed by XRPD; remark: listed apart in the source
Description: Equilibrations with solvent were carried out to investigate the relative stability of form HB in solvent. 50 mg of Form HB is equilibrated with 1 mL solvent for 24 h (or 7 days, or 28 days) in a water bath at 25° C. or for 7 days at 50° C. The solutions are filtered and dried for 10 minutes in air. The resulting solid is analyzed by XRPD.
Various solvent were investigated: acetone, acetonitrile, dichloromethane, dioxane, ethanol, heptane, methanol, THF, acetone/water mixtures from 10/90 to 90/10, acetonitrile/water mixtures from 10/90 to 90/10, dioxane/water mixtures from 10/90 to 90/10 and ethanol/water mixture from 10/90 to 90/10, tetrahydrofuran/water (50/50) and 1-propanol/water (70/30).

With `N[C@@H](CC(=O)O)Cn1nnc(-c2ccc(Oc3ncc(Cl)cc3F)cc2)n1` [Form HB, (S)-3-amino-4-(5-(4-((5-chloro-3-fluoropyridin-2-yl)oxy)phenyl)-2H-tetrazol-2-yl)butanoic acid] the “Chemical and physical stability in bulk” value [1] was “stable in all conditions except at 80 °C without humidity”, the solubility ([2]; FaSSIF (pH=6.5)) was 90 µg/mL (≈ 229 µM) and the solubility ([2]; FeSSIF (pH=5.8)) was 9 µg/mL (≈ 22.9 µM). The solubility ([2]; simulated gastric fluid (SGF of pH=2)) was 750 µg/mL (≈ 1910 µM), the “Change of crystalline form by XRPD under compression” value [3] was “No change of crystalline form” and the “Form conversion through slurry” value ([4]; high temperature slurry at 80° C. in aqueous solvent mixtures) was “Modification B can be obtained”. The “Form conversion through slurry” value ([4]; hot or boiling methanol, about 50° C. to about 65° C.) was “transforms into anhydrous Modification B”, the “Form change by XRPD upon granulation” value [5] was “no form change” and the “Change by XRPD under grinding” value [6] was “did not result in any change”. The Rehydration (Hygroscopicity by DVS; at 10% RH and above 60% RH) was “Stepwise rehydration to HB”, the “Behaviour at low humidity” value (Hygroscopicity by DVS; below 10% RH) was “loses their water” and the Hygroscopicity (Hygroscopicity by DVS; between 10-90% RH) was “not hygroscopic”. The “Solid form after equilibration with solvent” value (from here on “Solid form after equilibration”) ([7]; 25° C., 7 days or 28 days, a variety of solvent) was “no change”, the “Solid form after equilibration” value ([7]; 25° C., 7 days or 28 days, acetone, dioxane, ethanol, methanol and THF) was “converts to amorphous material or gel like material” and the Solid state residue ([7]; 50° C., 7 days, 1,4-Dioxane) was “Amorphous”. For the same compound, the Solid state residue ([7]; 50° C., 7 days, 1-Butanol) was “Amorphous”, the Solid state residue ([7]; 50° C., 7 days, Acetone) was “Amorphous” and the Solid state residue ([7]; 50° C., 7 days, Acetone/water 50/50) was “Form HB”. For the same compound, the Solid state residue ([7]; 50° C., 7 days, Acetone/water 90/10) was “Form HB”, the Solid state residue ([7]; 50° C., 7 days, Acetonitrile) was “Amorphous” and the Solid state residue ([7]; 50° C., 7 days, Anisole) was “Amorphous”. The Solid state residue ([7]; 50° C., 7 days, DMSO) was “Amorphous”, the Solid state residue ([7]; 50° C., 7 days, DMSO/methanol 50/50) was “Amorphous” and the Solid state residue ([7]; 50° C., 7 days, DMSO/water 50/50) was “Form HB”. The Solid state residue ([7]; 50° C., 7 days, DMSO/water 90/10) was “Amorphous”, the Solid state residue ([7]; 50° C., 7 days, Dichloromethane) was “Amorphous” and the Solid state residue ([7]; 50° C., 7 days, Ethanol) was “Amorphous”. The Solid state residue ([7]; 50° C., 7 days, Ethyl acetate) was “Amorphous”, the Solid state residue ([7]; 50° C., 7 days, Isopropanol) was “Amorphous” and the Solid state residue ([7]; 50° C., 7 days, Isopropyl acetate) was “Amorphous”. The Solid state residue ([7]; 50° C., 7 days, MEK) was “Amorphous”, the Solid state residue ([7]; 50° C., 7 days, MIBK) was “Amorphous” and the Solid state residue ([7]; 50° C., 7 days, MTBE) was “Amorphous”. For the same compound, the Solid state residue ([7]; 50° C., 7 days, Methanol) was “transformed into Form B”, the Solid state residue ([7]; 50° C., 7 days, NMP) was “Amorphous” and the Solid state residue ([7]; 50° C., 7 days, THF) was “Amorphous”. For the same compound, the Solid state residue ([7]; 50° C., 7 days, THF/acetone 50/50) was “Amorphous”, the Solid state residue ([7]; 50° C., 7 days, THF/methanol 50/50) was “Amorphous” and the Solid state residue ([7]; 50° C., 7 days, THF/water 50/50) was “Form HB”. For the same compound, the Solid state residue ([7]; 50° C., 7 days, Toluene) was “Amorphous”, the Solid state residue ([7]; 50° C., 7 days, Water) was “Form HB” and the “Solid form after equilibration” value ([7]; 50° C., 7 days, many solvents) was “became amorphous”. For the same compound, the Solid state residue ([7]; 50° C., 7 days, n-Heptane) was “mixture HB + B”.
